Experimental data: US20070093476A1, “Novel compounds and their use in medicine,as antidiabetic and hypolipidemic agents, process for their preparation and pharmaceutical compositions containing them” (priority 2003, published 2007)
Where a name gives a salt, the structure may show the parent alone.

Experiments:
Swiss albino mice = assay: Plasma triglyceride lowering activity in Swiss albino mice; format: in vivo; details: Mus musculus, po, 144 h, read-out: % of Reduction in Triglyceride
Experimental: b) Plasma Triglyceride and Total Cholesterol Lowering Activity in Swiss Albino Mice and Guinea Pigs
Male Swiss albino mice (SAM) and male Guinea pigs are obtained from NIN and housed in DRF animal house. All these animals are maintained under 12 hour light and dark cycle at 25±1° C. Animals are given standard laboratory chow (NIN, Hyderabad, India) and water, ad libitum. SAM of 20-25 g body weight range and Guinea pigs of 500-700 g body weight range are used (Oliver, P., Plancke, M. O., Marzin, D., Clavey, V., Sauzieres, J and Fruchart, J. C. Effects of fenofibrate, gemfibrozil and nicotinic acid on plasma lipoprotein levels in normal and hyperlipidemic mice. Atherosclerosis. 1988. 70 : 107-114).
The test compounds can be administered orally to Swiss albino mice at 0.3 to 30 mg/kg/day dose for 6 days. Control mice are treated with vehicle (0.25% Carboxymethylcellulose; dose 10 ml/kg). The test compounds are administered orally to Guinea pigs at 0.3 to 30 mg/kg/day dose for 6 days. Control animals are treated with vehicle (0.25% Carboxymethylcellulose; dose 5 ml/kg).
The blood samples can be collected in fed state 1 hour after drug administration on 0 and 6 day of treatment. The blood can be collected from the retro-orbital sinus through heparinised capillary in EDTA containing tubes. After centrifugation, plasma sample was separated for triglyceride and total cholesterol (Wieland, O. Methods of Enzymatic analysis. Bergermeyer, H. O., Ed., 1963. 211-214; Trinder, P. Ann. Clin. Biochem. 1969. 6 : 24-27). Measurement of plasma triglyceride, total cholesterol and HDL are done using commercial kits (Dr. Reddy's Diagnostic Division, Hyderabad, India).

C57BL/KsJ-db/db mice = assay: Efficacy in genetic model: plasma glucose and triglyceride lowering in db/db mice; format: in vivo; details: 3 mg/kg/d oral gavage, 6 days
Text: a) Efficacy in Genetic Models
Mutation in colonies of laboratory animals and different sensitivities to dietary regimens have made the development of animal models with non-insulin dependent diabetes and hyperlipidemia associated with obesity and insulin resistance possible. Genetic models such as db/db and ob/ob (Diabetes, (1982) 31(1) : 1-6) mice and zucker fa/fa rats have been developed by the various laboratories for understanding the pathophysiology of disease and testing the efficacy of new antidiabetic compounds (Diabetes, (1983) 32: 830-838; Annu. Rep. Sankyo Res. Lab. (1994). 46: 1-57). The homozygous animals, C57 BL/KsJ-db/db mice developed by Jackson Laboratory, US, are obese, hyperglycemic, hyperinsulinemic and insulin resistant (J. Clin. Invest., (1990) 85 : 962-967), whereas heterozygous are lean and normoglycemic. […]
The random blood sugar and triglyceride levels can be measured by collecting blood (100 μl) through orbital sinus, using heparinised capillary in tubes containing EDTA which was centrifuged to obtain plasma. The plasma glucose and triglyceride levels can be measured spectrometrically, by glucose oxidase and glycerol-3-PO4 oxidase/peroxidase enzyme (Dr. Reddy's Lab. Diagnostic Division Kits, Hyderabad, India) methods respectively.

hPPARα = molecular target: T1, hPPARα (Homo sapiens, UniProt Q07869); assay: Determination of hPPARα activity (GAL4-LBD luciferase reporter transactivation in HEK-293 cells); format: cell-based; details: 50 μM compound
T1 construct: expressed in transfected cells; host or cells: HEK-293
T1 sequence (Q07869 239-466 limits assumed): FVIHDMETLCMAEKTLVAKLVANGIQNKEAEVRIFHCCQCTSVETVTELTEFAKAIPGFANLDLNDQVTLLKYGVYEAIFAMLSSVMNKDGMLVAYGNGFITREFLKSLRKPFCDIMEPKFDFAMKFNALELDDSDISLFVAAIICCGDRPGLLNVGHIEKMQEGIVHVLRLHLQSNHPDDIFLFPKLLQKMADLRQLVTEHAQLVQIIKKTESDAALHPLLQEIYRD
Experimental: a) Determination of hPPARα Activity Ligand binding domain of hPPARα was fused to […] of Yeast transcription factor GAL4 in eucaryotic expression vector. Using superfect (Qiagen, Germany) as transfecting reagent HEK-293 cells are transfected with this plasmid and a reporter plasmid harboring the luciferase gene driven by a GAL4 specific promoter. Compound can be added at different concentrations after 42 hrs of transfection and incubated overnight. Luciferase activity as a function of compound binding/activation capacity of PPARα will be measured using Packard Luclite kit (Packard, USA) in Top Count (Ivan Sadowski, Brendan Bell, Peter Broag and Melvyn Hollis. Gene. 1992. 118 : 137-141; Superfect Transfection Reagent Handbook. February 1997. Qiagen, Germany).

hPPARγ1 = molecular target: T2, hPPARγ1 (Homo sapiens, UniProt P37231); assay: Determination of hPPARγ activity (GAL4-LBD luciferase reporter transactivation in HEK-293 cells); format: cell-based; details: 1 μM compound
T2 construct: expressed in transfected cells; host or cells: HEK-293
T2 sequence (P37231 238-503 limits assumed): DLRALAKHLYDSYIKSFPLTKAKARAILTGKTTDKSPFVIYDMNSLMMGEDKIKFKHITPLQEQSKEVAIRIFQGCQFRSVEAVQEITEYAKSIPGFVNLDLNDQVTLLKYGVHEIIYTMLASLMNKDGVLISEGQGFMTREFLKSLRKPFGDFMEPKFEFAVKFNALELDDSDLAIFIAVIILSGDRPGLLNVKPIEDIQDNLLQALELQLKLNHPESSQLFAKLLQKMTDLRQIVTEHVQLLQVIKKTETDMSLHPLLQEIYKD
Experimental: b) Determination of hPPARγ Activity
Ligand binding domain of hPPARγ1 is fused to DNA binding domain of Yeast transcription factor GAL4 in eucaryotic expression vector. Using lipofectamine (Gibco BRL, USA) as transfecting reagent HEK-293 cells are transfected with this plasmid and a reporter plasmid harboring the luciferase gene driven by a GAL4 specific promoter. Compound can be added at 1 μM concentration after 48 hrs of transfection and incubated overnight Luciferase activity as a function of drug binding/activation capacity of PPARγ1 will be measured using Packard Luclite kit (Packard, USA) in Packard Top Count (Ivan Sadowski, Brendan Bell, Peter Broag and Melvyn Hollis. Gene. 1992. 118 : 137-141; Guide to Eukaryotic Transfections with Cationic Lipid Reagents. Life Technologies, GIBCO BRL, USA).

## CO[C@@H](Cc1ccc(NCc2ccc3cc(OS(C)(=O)=O)ccc3c2)cc1)C(=O)O [Example 45, (S)-2-Methoxy-3-[4-{6-methanesulfonyloxynapth-2-ylmethylamino}phenyl]propanoic acid Arginine salt]
Swiss albino mice
  inhibition in vivo at 3 mg/kg/day: 60%
C57BL/KsJ-db/db mice
  % of Reduction in Triglyceride: 28%
  % of reduction in Plasma glucose: 32%
hPPARα
  PPAR fold activation, PPAR α at 50 μM concentration: 5.2 fold
hPPARγ1
  PPAR fold activation, PPAR γ at 1 μM concentration: 1.4 fold
